Source: patent US10130615B2, “Benzomorphan analogs and the use thereof” (priority 2014, dated 2018)

Experiments:
μ-opioid receptor [1] = molecular target: T1, μ-opioid receptor (Homo sapiens, UniProt P35372); assay: cell-based; set-up: purchased Perkin Elmer, Shelton, Conn; conditions: U2OS cells; read-out: β-Arr2 μ Emax
κ-opioid receptor [2] = molecular target: T2, κ-opioid receptor (Homo sapiens, UniProt P41145); assay: κ-opioid receptor [35S]GTPγS functional assay, HEK-293 or CHO cells; format: biochemical; set-up: expressed in transfected cells; host or cells: HEK-293; conditions: HEK-293 or CHO cells; for EC50: read-out: GTPγS κ EC50; for Emax: relative to U69,593
Method: (§1) Plates were incubated for 30 min at a temperature of about 25° C. with shaking.

κ-opioid receptor [3] = molecular target: T2, κ-opioid receptor; assay: κ-opioid receptor radioligand binding assay ([3H]-U69,593); set-up: expressed in transfected cells; host or cells: HEK-293; conditions: HEK-293 or CHO cells; read-out: Ki (nM) Opioid Receptor κ
Method: κ-opioid Receptor Binding Assay Procedures: Membranes from recombinant HEK-293 cells expressing the human κ opioid receptor (κ) (cloned in house) were prepared by lysing cells in ice cold hypotonic buffer (2.5 mM MgCl2, 50 mM HEPES, pH 7.4) (10 mL/10 cm dish) followed by homogenization with a tissue grinder/Teflon pestle. Membranes were collected by centrifugation at 30,000×g for 15 min at 4° C. and pellets were resuspended in hypotonic buffer to a final concentration of 1-3 mg/mL. Protein concentrations were determined using the BioRad protein assay reagent with bovine serum albumen as standard. Aliquots of κ receptor membranes were stored at −80° C.
Radioligand dose displacement assays used 0.4 nM [^3H]-U69,593 (GE Healthcare, Piscataway, N.J.; 40 Ci/mmole) with 15 μg membrane protein (recombinant κ opioid receptor expressed in HEK 293 cells; in-house prep) in a final volume of 200 μl binding buffer (5% DMSO, 50 mM Trizma base, pH 7.4). Non-specific binding was determined in the presence of 10 μM unlabeled naloxone or U69,593. All reactions were performed in 96-well polypropylene plates for 1 hr at a temperature of about 25° C.

κ-opioid receptor [4] = molecular target: T2, κ-opioid receptor; assay: κ-opioid receptor GTPγS functional assay, U2OS cells; format: biochemical; set-up: expressed in transfected cells; host or cells: U-2 OS; conditions: U2OS cells; for EC50: read-out: GTPγS κ EC50
Method: as §1

μ-opioid receptor [5] = molecular target: T1, μ-opioid receptor; assay: μ-opioid receptor radioligand binding assay ([3H]-diprenorphine); set-up: purchased Perkin Elmer, Shelton, Conn; host or cells: HEK-293 or CHO; conditions: HEK-293 or CHO cells; read-out: Ki (nM) Opioid Receptor μ
Method: μ-opioid Receptor Binding Assay Procedures: Radioligand dose-displacement binding assays for μ-opioid receptors used 0.3 nM [^3H]-diprenorphine (Perkin Elmer, Shelton, Conn.), with […] membrane protein/well in a final volume of 500 μl binding buffer (10 mM MgCl2, 1 mM EDTA, 5% DMSO, 50 mM HEPES, pH 7.4). Reactions were carried out in the absence or presence of increasing concentrations of unlabeled naloxone. All reactions were conducted in 96-deep well polypropylene plates for 2 hr at room temperature. […] The data were analyzed using the one-site competition curve fitting functions in GraphPad PRISM™ v. 3.0 or higher (San Diego, Calif.), or an in-house function for one-site competition curve-fitting.

μ-opioid receptor [6] = molecular target: T1, μ-opioid receptor; assay: biochemical; set-up: purchased Perkin Elmer, Shelton, Conn; host or cells: HEK-293 or CHO; conditions: HEK-293 or CHO cells; relative to DAMGO; read-out: GTPγS μ Emax
μ-opioid receptor [7] = molecular target: T1, μ-opioid receptor; assay: μ-opioid receptor GTPγS functional assay, U2OS cells; conditions: for Emax: read-out: GTPγS μ Emax
κ-opioid receptor [8] = molecular target: T2, κ-opioid receptor; assay: κ-opioid receptor β-Arr2 activity response, U2OS cells; format: cell-based; set-up: expressed in transfected cells; host or cells: U-2 OS; conditions: U2OS cells; for EC50: read-out: β-Arr2 κ EC50

T2 sequence (P41145 whole entry): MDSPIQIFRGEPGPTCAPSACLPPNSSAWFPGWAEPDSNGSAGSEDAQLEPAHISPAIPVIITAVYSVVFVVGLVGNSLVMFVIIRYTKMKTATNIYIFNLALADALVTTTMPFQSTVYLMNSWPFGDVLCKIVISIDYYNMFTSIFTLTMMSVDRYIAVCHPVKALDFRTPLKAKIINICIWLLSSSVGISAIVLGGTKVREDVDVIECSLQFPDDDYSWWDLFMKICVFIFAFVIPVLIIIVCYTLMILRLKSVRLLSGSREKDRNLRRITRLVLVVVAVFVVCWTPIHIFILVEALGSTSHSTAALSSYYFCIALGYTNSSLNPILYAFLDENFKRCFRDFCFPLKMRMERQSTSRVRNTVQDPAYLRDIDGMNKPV
T1 sequence (P35372 whole entry, species assumed): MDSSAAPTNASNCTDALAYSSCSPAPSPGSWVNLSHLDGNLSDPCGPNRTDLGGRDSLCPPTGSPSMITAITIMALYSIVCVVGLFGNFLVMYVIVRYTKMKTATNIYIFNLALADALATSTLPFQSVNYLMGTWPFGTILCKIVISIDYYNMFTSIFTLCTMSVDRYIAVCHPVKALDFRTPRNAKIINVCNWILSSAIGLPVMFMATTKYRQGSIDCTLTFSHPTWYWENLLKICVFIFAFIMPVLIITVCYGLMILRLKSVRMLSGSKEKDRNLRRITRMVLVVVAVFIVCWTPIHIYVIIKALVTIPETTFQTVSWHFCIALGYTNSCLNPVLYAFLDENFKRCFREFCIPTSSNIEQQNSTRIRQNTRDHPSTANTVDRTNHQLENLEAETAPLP

Structure (SMILES) | Emax (μ-opioid receptor [1]) | EC50 (κ-opioid receptor [2]) | Emax (κ-opioid receptor [2]) | Ki (κ-opioid receptor [3]) | Emax (κ-opioid receptor [4]) | EC50 (κ-opioid receptor [4]) | Ki (μ-opioid receptor [5]) | Emax (μ-opioid receptor [6]) | EC50 (μ-opioid receptor [7]) | Emax (μ-opioid receptor [7]) | Emax (κ-opioid receptor [8]) | EC50 (κ-opioid receptor [8])
C[C@H]1[C@H]2Cc3ccc(O)cc3[C@]1(CCCC(N)=O)CCN2CC1CCC1 [Compound 29, 4-((2R,6R,11R)-3-(cyclobutylmethyl)-8-hydroxy-11-methyl-2,3,4,5-tetrahydro-2,6-methanobenzo[d]azocin-6(1H)-yl)butanamide] | -1.5% | 7.6 ± 1.67 nM | 87.7 ± 3.18% | 0.12 ± 0.019 nM | 108 ± 1.2% | 0.39 ± 0.016 nM | 1.82 ± 0.57 nM | 1% | 2.65 ± 0.89 nM | 41.3 ± 4.91% | 45 ± 3% | 2.06 ± 0.32 nM
COC(=O)c1ccc(CC(=O)NCC[C@]23CCN(CC4CC4)[C@H](Cc4ccc(OC)cc42)[C@@H]3C)cc1 [Compound 30, methyl 4-(2-((2-((2R,6R,11R)-3-(cyclopropylmethyl)-8-methoxy-11-methyl-2,3,4,5-tetrahydro-2,6-methano-benzo[d]azocin-6(1H)-yl)ethyl)amino)-2-oxoethyl)benzoate] | 1 ± 0.5% | 259 ± 33.1 nM | 83 ± 7.77% | 6.18 ± 1.72 nM | 104 ± 2.96% | 13.1 ± 1.48 nM | 389 ± 124 nM | 0% | 230 ± 27.5 nM | 51 ± 3.51% | -1% | –
C[C@H]1[C@H]2Cc3ccc(O)cc3[C@]1(CCNC(=O)Cc1ccc(C(=O)O)cc1)CCN2CC1CC1 [Compound 31, 4-(2-((2-((2R,6R,11R)-3-(cyclopropyl-methyl)-8-hydroxy-11-methyl-2,3,4,5-tetrahydro-2,6-methanobenzo[d]azocin-6(1H)-yl)ethyl)amino)-2-oxoethyl)-benzoic acid] | -1.25% | 94.2 ± 33.8 nM | 88.7 ± 6.89% | 18.4 ± 3.6 nM | 104 ± 3.48% | 18.5 ± 2.16 nM | 25.1 ± 7.56 nM | 0% | 8.77 ± 1.37 nM | 58 ± 4.73% | 29.7 ± 5.04% | 53.4 ± 8.62 nM
C[C@H]1[C@H]2Cc3ccc(O)cc3[C@]1(CCNC(=O)c1ccc(C(=O)O)cc1)CCN2CC1CC1 [Compound 32, 4-((2-((2R,6R,11R)-3-(cyclopropyl-methyl)-8-hydroxy-11-methyl-2,3,4,5-tetrahydro-2,6-methanobenzo[d]azocin-6(1H)-yl)ethyl)carbamoyl)benzoic acid] | -1% | 144 ± 25.4 nM | 91.3 ± 9.94% | 35 ± 5.97 nM | 97.7 ± 4.67% | 35.7 ± 5.29 nM | 5.62 ± 1.41 nM | -1% | 2.16 ± 0.38 nM | 57.3 ± 5.04% | 11.3 ± 1.2% | 26.7 ± 10.5 nM
